Laboratory results from patent US9738634B2, “Heterocyclic amide compound and herbicide” (SYNGENTA PARTICIPATIONS AG, priority 2013, dated 2017).

Experiments:
Assay type in all cases: in vivo
barnyard grass [1] = assay: Test Example 1: weedkilling efficacy, preemergent weed treatment in the submerged state; A: barnyard grass; conditions: treatment dosage 252 g/ha
Method in brief: (§1)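 Pots of alluvial soil flooded 4 cm deep, sown with barnyard grass, bulrush and oval-leafed pondweed and transplanted with 2.5-leaf rice. Emulsified compound applied to the water surface on sowing day at stated g/ha; greenhouse 25–30 °C, effects assessed 3 weeks after treatment.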

bulrush [2] = assay: Test Example 1: weedkilling efficacy, preemergent weed treatment in the submerged state; B: bulrush; conditions: treatment dosage 252 g/ha
Method in brief: as §1

oval-leafed pondweed [3] = assay: Test Example 1: weedkilling efficacy, preemergent weed treatment in the submerged state; C: oval-leafed pondweed; conditions: treatment dosage 252 g/ha
Method in brief: as §1

transplanted rice = assay: Test Example 1: preemergent weed treatment in the submerged state, effect on crop; a: transplanted rice; conditions: treatment dosage 252 g/ha
Method in brief: as §1

barnyard grass [4] = assay: Test Example 2: weedkilling efficacy, growth period weed treatment in the submerged state; A: barnyard grass; conditions: treatment dosage 252 g/ha
Method in brief: (§2)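 Barnyard grass, bulrush and oval-leafed pondweed sown in alluvial soil under 4 cm flooding, greenhouse 25 to 30° C. At 1-2 leaf stage, water-diluted emulsion applied to the water surface at stated g/ha dosages; effects scored 3 weeks later.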

bulrush [5] = assay: Test Example 2: weedkilling efficacy, growth period weed treatment in the submerged state; B: bulrush; conditions: treatment dosage 252 g/ha
Method in brief: as §2

oval-leafed pondweed [6] = assay: Test Example 2: weedkilling efficacy, growth period weed treatment in the submerged state; C: oval-leafed pondweed; conditions: treatment dosage 252 g/ha
Method in brief: as §2

crabgrass [7] = assay: Test Example 3: weedkilling efficacy through soil treatment; D: crabgrass; conditions: treatment dosage 315 g/ha
Method in brief: (§3)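 Crop and weed responses were judged three weeks after a uniform surface spray of the water-diluted emulsion at the given g/ha rate. Seeds sat beneath about 1.5 cm of sterilized diluvial soil, and boxes stood in a greenhouse at 25 to 30° C.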

green foxtail [8] = assay: Test Example 3: weedkilling efficacy through soil treatment; E: green foxtail; conditions: treatment dosage 315 g/ha
Method in brief: as §3

wild oat [9] = assay: Test Example 3: weedkilling efficacy through soil treatment; G: wild oat; conditions: treatment dosage 315 g/ha
Method in brief: as §3

black-grass [10] = assay: Test Example 3: weedkilling efficacy through soil treatment; H: black-grass; conditions: treatment dosage 315 g/ha
Method in brief: as §3

Italian ryegrass [11] = assay: Test Example 3: weedkilling efficacy through soil treatment; I: Italian ryegrass; conditions: treatment dosage 315 g/ha
Method in brief: as §3

Indian mallow [12] = assay: Test Example 3: weedkilling efficacy through soil treatment; K: Indian mallow; conditions: treatment dosage 315 g/ha
Method in brief: as §3

redroot pigweed [13] = assay: Test Example 3: weedkilling efficacy through soil treatment; L: redroot pigweed; conditions: treatment dosage 315 g/ha
Method in brief: as §3

fig-leafed goosefoot [14] = assay: Test Example 3: weedkilling efficacy through soil treatment; M: fig-leafed goosefoot; conditions: treatment dosage 315 g/ha
Method in brief: as §3

chickweed [15] = assay: Test Example 3: weedkilling efficacy through soil treatment; N: chickweed; conditions: treatment dosage 315 g/ha
Method in brief: as §3

catchweed [16] = assay: Test Example 3: weedkilling efficacy through soil treatment; O: catchweed; conditions: treatment dosage 315 g/ha
Method in brief: as §3

birds-eye speedwell [17] = assay: Test Example 3: weedkilling efficacy through soil treatment; p: birds-eye speedwell; conditions: treatment dosage 315 g/ha
Method in brief: as §3

directly sown rice [18] = assay: Test Example 3: soil treatment, effect on crop; b: directly sown rice; conditions: treatment dosage 315 g/ha
Method in brief: as §3

corn [19] = assay: Test Example 3: soil treatment, effect on crop; c: corn; conditions: treatment dosage 315 g/ha
Method in brief: as §3

soybean [20] = assay: Test Example 3: soil treatment, effect on crop; d: soybean; conditions: treatment dosage 315 g/ha
Method in brief: as §3

wheat [21] = assay: Test Example 3: soil treatment, effect on crop; e: wheat; conditions: treatment dosage 315 g/ha
Method in brief: as §3

beet [22] = assay: Test Example 3: soil treatment, effect on crop; f: beet; conditions: treatment dosage 315 g/ha
Method in brief: as §3

crabgrass [23] = assay: Test Example 4: weedkilling efficacy by foliar treatment; D: crabgrass; conditions: treatment dosage 315 g/ha
Method in brief: (§4)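 Seeds are spot-sown into sterilized diluvial soil and covered with about 1.5 cm of soil. After 14 days' greenhouse growth at 25 to 30° C, plants are sprayed on stems and leaves with diluted emulsion at the stated g/ha rate, then scored at 3 weeks.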

green foxtail [24] = assay: Test Example 4: weedkilling efficacy by foliar treatment; E: green foxtail; conditions: treatment dosage 315 g/ha
Method in brief: as §4

wild oat [25] = assay: Test Example 4: weedkilling efficacy by foliar treatment; G: wild oat; conditions: treatment dosage 315 g/ha
Method in brief: as §4

black-grass [26] = assay: Test Example 4: weedkilling efficacy by foliar treatment; H: black-grass; conditions: treatment dosage 315 g/ha
Method in brief: as §4

Italian ryegrass [27] = assay: Test Example 4: weedkilling efficacy by foliar treatment; I: Italian ryegrass; conditions: treatment dosage 315 g/ha
Method in brief: as §4

Indian mallow [28] = assay: Test Example 4: weedkilling efficacy by foliar treatment; K: Indian mallow; conditions: treatment dosage 315 g/ha
Method in brief: as §4

redroot pigweed [29] = assay: Test Example 4: weedkilling efficacy by foliar treatment; L: redroot pigweed; conditions: treatment dosage 315 g/ha
Method in brief: as §4

fig-leafed goosefoot [30] = assay: Test Example 4: weedkilling efficacy by foliar treatment; M: fig-leafed goosefoot; conditions: treatment dosage 315 g/ha
Method in brief: as §4

chickweed [31] = assay: Test Example 4: weedkilling efficacy by foliar treatment; N: chickweed; conditions: treatment dosage 315 g/ha
Method in brief: as §4

catchweed [32] = assay: Test Example 4: weedkilling efficacy by foliar treatment; O: catchweed; conditions: treatment dosage 315 g/ha
Method in brief: as §4

birds-eye speedwell [33] = assay: Test Example 4: weedkilling efficacy by foliar treatment; p: birds-eye speedwell; conditions: treatment dosage 315 g/ha
Method in brief: as §4

directly sown rice [34] = assay: Test Example 4: foliar treatment, effect on crop; b: directly sown rice; conditions: treatment dosage 315 g/ha
Method in brief: as §4

corn [35] = assay: Test Example 4: foliar treatment, effect on crop; c: corn; conditions: treatment dosage 315 g/ha
Method in brief: as §4

soybean [36] = assay: Test Example 4: foliar treatment, effect on crop; d: soybean; conditions: treatment dosage 315 g/ha
Method in brief: as §4

wheat [37] = assay: Test Example 4: foliar treatment, effect on crop; e: wheat; conditions: treatment dosage 315 g/ha
Method in brief: as §4

beet [38] = assay: Test Example 4: foliar treatment, effect on crop; f: beet; conditions: treatment dosage 315 g/ha
Method in brief: as §4

CC1=C(c2cccnc2F)C(=O)N(C(C)(C)C(=O)Nc2cc(Cl)ccn2)CO1 [B-2-07]
A (barnyard grass) weedkilling efficacy grade (barnyard grass [1]): 5 (weed kill ratio 90% or more, (practically complete withering))
B (bulrush) weedkilling efficacy grade (bulrush [2]): 5 (weed kill ratio 90% or more, (practically complete withering))
C (oval-leafed pondweed) weedkilling efficacy grade (oval-leafed pondweed [3]): 5 (weed kill ratio 90% or more, (practically complete withering))
a (transplanted rice) effect on crop grade (transplanted rice): 0 (weed kill ratio 5% or less (practically no effect))
A (barnyard grass) weedkilling efficacy grade (barnyard grass [4]): 3 (weed kill ratio 40% or more, less than 70%)
B (bulrush) weedkilling efficacy grade (bulrush [5]): 5 (weed kill ratio 90% or more, (practically complete withering))
C (oval-leafed pondweed) weedkilling efficacy grade (oval-leafed pondweed [6]): 2 (weed kill ratio 20% or more, less than 40%)
D (crabgrass) weedkilling efficacy grade (crabgrass [7]): 5 (weed kill ratio 90% or more, (practically complete withering))
E (green foxtail) weedkilling efficacy grade (green foxtail [8]): 5 (weed kill ratio 90% or more, (practically complete withering))
G (wild oat) weedkilling efficacy grade (wild oat [9]): 3 (weed kill ratio 40% or more, less than 70%)
H (black-grass) weedkilling efficacy grade (black-grass [10]): 5 (weed kill ratio 90% or more, (practically complete withering))
I (Italian ryegrass) weedkilling efficacy grade (Italian ryegrass [11]): 5 (weed kill ratio 90% or more, (practically complete withering))
K (Indian mallow) weedkilling efficacy grade (Indian mallow [12]): 2 (weed kill ratio 20% or more, less than 40%)
L (redroot pigweed) weedkilling efficacy grade (redroot pigweed [13]): 3 (weed kill ratio 40% or more, less than 70%)
M (fig-leafed goosefoot) weedkilling efficacy grade (fig-leafed goosefoot [14]): 3 (weed kill ratio 40% or more, less than 70%)
N (chickweed) weedkilling efficacy grade (chickweed [15]): 3 (weed kill ratio 40% or more, less than 70%)
O (catchweed) weedkilling efficacy grade (catchweed [16]): 3 (weed kill ratio 40% or more, less than 70%)
P (birds-eye speedwell) weedkilling efficacy grade (birds-eye speedwell [17]): 5 (weed kill ratio 90% or more, (practically complete withering))
b (directly sown rice) effect on crop grade (directly sown rice [18]): 4 (weed kill ratio 70% or more, less than 90%)
c (corn) effect on crop grade (corn [19]): 3 (weed kill ratio 40% or more, less than 70%)
d (soybean) effect on crop grade (soybean [20]): 1 (weed kill ratio 5% or more, less than 20%)
e (wheat) effect on crop grade (wheat [21]): 0 (weed kill ratio 5% or less (practically no effect))
f (beet) effect on crop grade (beet [22]): 1 (weed kill ratio 5% or more, less than 20%)
D (crabgrass) weedkilling efficacy grade (crabgrass [23]): 5 (weed kill ratio 90% or more, (practically complete withering))
E (green foxtail) weedkilling efficacy grade (green foxtail [24]): 4 (weed kill ratio 70% or more, less than 90%)
G (wild oat) weedkilling efficacy grade (wild oat [25]): 3 (weed kill ratio 40% or more, less than 70%)
H (black-grass) weedkilling efficacy grade (black-grass [26]): 4 (weed kill ratio 70% or more, less than 90%)
I (Italian ryegrass) weedkilling efficacy grade (Italian ryegrass [27]): 5 (weed kill ratio 90% or more, (practically complete withering))
K (Indian mallow) weedkilling efficacy grade (Indian mallow [28]): 1 (weed kill ratio 5% or more, less than 20%)
L (redroot pigweed) weedkilling efficacy grade (redroot pigweed [29]): 2 (weed kill ratio 20% or more, less than 40%)
M (fig-leafed goosefoot) weedkilling efficacy grade (fig-leafed goosefoot [30]): 3 (weed kill ratio 40% or more, less than 70%)
N (chickweed) weedkilling efficacy grade (chickweed [31]): 2 (weed kill ratio 20% or more, less than 40%)
O (catchweed) weedkilling efficacy grade (catchweed [32]): 2 (weed kill ratio 20% or more, less than 40%)
P (birds-eye speedwell) weedkilling efficacy grade (birds-eye speedwell [33]): 3 (weed kill ratio 40% or more, less than 70%)
b (directly sown rice) effect on crop grade (directly sown rice [34]): 4 (weed kill ratio 70% or more, less than 90%)
c (corn) effect on crop grade (corn [35]): 1 (weed kill ratio 5% or more, less than 20%)
d (soybean) effect on crop grade (soybean [36]): 3 (weed kill ratio 40% or more, less than 70%)
e (wheat) effect on crop grade (wheat [37]): 0 (weed kill ratio 5% or less (practically no effect))
f (beet) effect on crop grade (beet [38]): 3 (weed kill ratio 40% or more, less than 70%)
